Test results as given in ChEMBL document CHEMBL1921753, “Semisynthesis and biological evaluation of ganodermanontriol and its stereoisomeric triols” (J Nat Prod, 2011).

Experiments:
Format in all cases: functional, cell-based
MDA-MB-231 [1] = test: Antiproliferative activity against human MDA-MB-231 cells after 24 to 72 hrs by MTT assay
MCF7 [2] = test: Antiproliferative activity against human MCF7 cells after 24 to 72 hrs by MTT assay
MCF7 [3] = test: Antiproliferative activity against human MCF7 cells after 72 hrs by MTT assay; settings: MCF7, 72 h
MDA-MB-231 [4] = test: Antiproliferative activity against human MDA-MB-231 cells after 72 hrs by MTT assay; settings: MDA-MB-231, 72 h

## C[C@H](CC[C@@H](O)[C@](C)(O)CO)[C@H]1CC[C@@]2(C)C3=CC[C@H]4C(C)(C)C(=O)CC[C@]4(C)C3=CC[C@]12C
MDA-MB-231 [1]
  IC50: 11.3 µM
MCF7 [2]
  IC50: 24.1 µM

## C[C@H](CC[C@@H](O)[C@@](C)(O)CO)[C@H]1CC[C@@]2(C)C3=CC[C@H]4C(C)(C)C(=O)CC[C@]4(C)C3=CC[C@]12C
MDA-MB-231 [1]
  IC50: 33.8 µM
MCF7 [2]
  IC50: 24.1 µM

## C[C@H](CC[C@H](O)[C@@](C)(O)CO)[C@H]1CC[C@@]2(C)C3=CC[C@H]4C(C)(C)C(=O)CC[C@]4(C)C3=CC[C@]12C
MDA-MB-231 [1]
  IC50: 36.7 µM
MCF7 [2]
  IC50: 16.3 µM

## C[C@H](CC[C@H](O)[C@](C)(O)CO)[C@H]1CC[C@@]2(C)C3=CC[C@H]4C(C)(C)C(=O)CC[C@]4(C)C3=CC[C@]12C [GANODERMANONTRIOL]
MCF7 [3]
  IC50: 5.8 µM
MDA-MB-231 [4]
  IC50: 9.7 µM
